The record followed here is patent US10195313B2, “Method for forming hydrogel arrays using surfaces with differential wettability” (Wisconsin Alumni Research Foundation, priority 2014, dated 2019).

The experiment concerns endothelial cells (HUVECs, iPSC-ECs, hESC-ECs). Kind of experiment: endothelial cell tubule network formation (tubulogenesis) on patterned hydrogel array spots. Particulars: 0.067 mM to 0.267 of peptide incorporated into hydrogel arrays. It counts as cell-based, human. How it is done:
In this Example, a patterned hydrogel array was used to investigate endothelial cell tubule network formation (termed “tubulogenesis”) in vitro.
Specifically, patterned hydrogel arrays were composed of 8-arm, 20 kDa polyethylene glycol) functionalized with norbenene. As illustrated in the schematic shown in FIG. 13A, the patterned hydrogel arrays included hydrogel spots contained from 30 mg/mL to 60 mg/mL PEG, from 30-70% crosslinking with an MMP-degradable crosslinking peptide (KCGGPQGIWGQGCK, SEQ ID NO:35 or KCGGPQGIAGQGCK, SEQ ID NO:36) and 0.25 mM to 2 mM of a cell adhesive peptide (CRGDS, SEQ ID NO:2). Patterned hydrogel array spots were seeded with human umbilical vein endothelial cells (HUVECs), human induced pluripotent stem cell-derived endothelial cells (iPSC-ECs), and human embryonic stem cell-derived endothelial cells (hESC-ECs) in culture media containing standard growth medium for each cell type (Medium 199 and EGM-2 BULLETKIT™ (Lonza, Basel, Switzerland) for HUVECs, VASCULIFE® and VEGF LifeFactors for iPSC-ECs and hESC-ECs (Lifeline Cell Technology, Frederick, Md.)).
The hydrogel spots that contained between 36 mg/mL to 60 mg/mL PEG, 30-70% crosslinking with an MMP-degradable crosslinking peptide and 0.25 mM to 2 mM of the cell adhesive peptide supported of EC tubule formation (FIG. 13C). […]

Non-standard residues stand in square brackets, D forms with d. No end group written: not given here.

As for “CKDAPYEWNFDILdYdAdFdE (CKDAPYEWNFDIL[dY][dA][dF][dE]; not fully specified (residue 13))”, the “persistence of tubule networks” value is reported as “enhanced”.
